Measured values as given in the supplement of paper PMC10307832.

Legend:
Assay in all cases: relative viability (nuclei count vs DMSO), 5 days (fraction); higher = more cells survive
[1] = compound: CN1CCN(CC1)C2=CC(=C(C=C2)NC3=NC(=C(S3)C(=O)C4=C(C=CC=C4Cl)Cl)N)OC [XMD14-99] + O=C(c1cc(Cc2n[nH]c(=O)c3ccccc23)ccc1F)N1CCN(C(=O)C2CC2)CC1 [Olaparib] (partner 8 µM)
In short: (§1)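 For relative viability, nuclei counts in treated wells were divided by those in vehicle wells. Lung cancer cell lines had been pin-tool dosed in 1536-well plates the day after seeding and cultured for 5 days, then fixed and stained in one step (final 0.05% Triton X-100, 1% formaldehyde, 1 ug/ml Hoechst) and imaged at 4×. Doses were one drug alone or a fixed anchor-drug dose plus five library-drug doses (not always all listed) in √10 steps, and values are duplicate-plate medians.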

[2] = compound: CN1CCN(CC1)C2=CC(=C(C=C2)NC3=NC(=C(S3)C(=O)C4=C(C=CC=C4Cl)Cl)N)OC [XMD14-99] + Nc1nc2[nH]cc(CCc3ccc(C(=O)N[C@@H](CCC(=O)O)C(=O)O)cc3)c2c(=O)[nH]1 [Pemetrexed] (partner 0.2 µM)
In short: as §1

[3] = compound: N[C@@H]1CCCN(c2c(/C=C3\SC(=O)NC3=O)cccc2-c2ccccc2)C1 [AZD1208] + O=C(CCCCCCC(=O)Nc1ccccc1)NO [Vorinostat] (partner 1 µM)
In short: as §1

[4] = compound: N[C@@H]1CCCN(c2c(/C=C3\SC(=O)NC3=O)cccc2-c2ccccc2)C1 [AZD1208] + CS(=O)(=O)N1CCN(Cc2cc3nc(-c4cccc5[nH]ncc45)nc(N4CCOCC4)c3s2)CC1 [Pictilisib] (partner 1 µM)
In short: as §1

Cell Line | relative viability ([1]; first compound 0.08 µM) | relative viability ([1]; first compound 0.8 µM) | relative viability ([1]; first compound 2.53 µM) | relative viability ([1]; first compound 8 µM) | relative viability ([2]; first compound 0.08 µM) | relative viability ([2]; first compound 0.8 µM) | relative viability ([2]; first compound 2.53 µM) | relative viability ([2]; first compound 8 µM) | relative viability ([3]; first compound 0.08 µM) | relative viability ([3]; first compound 0.253 µM) | relative viability ([3]; first compound 0.8 µM) | relative viability ([3]; first compound 2.53 µM) | relative viability ([3]; first compound 8 µM) | relative viability ([4]; first compound 0.08 µM) | relative viability ([4]; first compound 0.253 µM) | relative viability ([4]; first compound 0.8 µM) | relative viability ([4]; first compound 2.53 µM) | relative viability ([4]; first compound 8 µM)
HCC-827 | 0.596 | 0.632 | 0.622 | 0.491 | 0.214 | 0.255 | 0.265 | 0.218 | 0.991 | 0.904 | 0.861 | 0.839 | 0.78 | 1.07 | 1.15 | 0.992 | 0.95 | 0.784
HOP-62 | 0.536 | 0.634 | 0.501 | 0.312 | 0.368 | 0.364 | 0.36 | 0.331 | 0.657 | 0.856 | 0.6 | 0.455 | 0.572 | 0.658 | 0.638 | 0.658 | 0.455 | 0.717
IA-LM | 0.943 | 0.691 | 0.68 | 0.352 |  |  |  |  | 0.922 | 1.27 | 0.778 | 0.863 | 0.853 | 0.256 | 0.326 | 0.292 | 0.231 | 0.308
LC-2-ad | 0.687 | 0.707 | 0.628 | 0.498 | 0.268 | 0.298 | 0.268 | 0.293 | 0.716 | 0.703 | 0.685 | 0.704 | 0.669 | 0.397 | 0.446 | 0.405 | 0.357 | 0.417
LCLC-97TM1 | 0.415 | 0.351 | 0.35 | 0.209 | 0.19 | 0.173 | 0.198 | 0.167 | 0.64 | 0.99 | 0.623 | 0.442 | 0.54 | 0.164 | 0.175 |  | 0.121 | 0.145
